In patent publication US20170038387A1, “METHODS FOR TREATING CHRONIC LYMPHOCYTIC LEUKEMIA AND THE USE OF BIOMARKERS AS A PREDICTOR OF CLINICAL SENSITIVITY TO IMMUNOMODULATORY THERAPIES” (Celgene Corporation, priority 2015, published 2017):

Tests used:
PDE6D = experiment: Western blot of residual PDE6D protein level; type: cell-based; conditions: 1 μM Compound A vs 10 μM lenalidomide, 72 hours; EHEB, I83-E95, Mec2, CII, and CI
Protocol: Cells were then harvested and processed for SDS-PAGE and western blot. PDE6D antibody was purchased from Pierce and used at 1:300. For western blot quantification, the band intensity was measured using an Odyssey imager and then normalized to β-actin loading controls. Scatter plot: […]

primary CLL samples = experiment: TMT-tagging and mass-spectrometry profiling of relative protein abundance after compound exposure; type: cell-based, human
Description: Data import: Relative abundance (RA) data was imported into the R statistical programming environment v.3.1.2. Proteins with less than one spectral count in any of the three MS runs for each case scenario were filtered out and relative abundance was scale normalized to the same median by using normalizeBetweenArrays( ) function implemented in the limma package for Bioconductor (see Yang et al., Nucleic Acids Research, 30(4), e15 (2002)).
Comparative analysis: RA scores were log 2-transformed to perform direct comparison of compounds exposure versus DMSO control and a paired moderated t-test (see Smyth, Statistical Applications in Genetics and Molecular Biology, 3(1), article 3 (2004)) was performed by using lmfit( ) and eBayes( ) functions form limma package to test differential relative abundance between experimental conditions. For differential analysis across cases, the log-2 fold changes of replicates for two of the case scenarios were considered.
Linear regression analysis: Linear regression was modeled by using lm( ) function from the stats package. This function provided the correlation coefficients as well as the linear fitted model. Data were assessed for outliers detection within the linear model via the Studentized residuals method (implemented in outlierTest( ) function from car package) and deemed significant if their q-values were under a threshold of 0.05 (5%).
The proteins subjected to the analysis were those with more than one spectral count matched in three MS runs representing each case scenario. A total of 6114, 6070, 5982 and 5382 proteins were retained for each case scenario. Differential expression analysis was applied to the high and consistent coverage of 4594 proteins quantified across all case scenarios. FIGS. 2A-2D show distribution of normalized relative abundances for each replicate of the four case scenarios (Cases B1-B4). The standard deviation of each replicate is represented as a stair-plot line at the bottom of the boxplot. FIGS. 3A-3D show heatmaps representing correlations of log 2 fold-changes of protein levels post compound treatment as compared with DMSO across conditions for all case scenarios. Low correlation of log 2 fold-changes at 6 hours may be due to the alteration of a small subset of proteins at an early time point without strong general effects across the proteome. Stronger correlations at 24 hours can be linked to a higher proportion of proteins perturbed reflecting downstream changes upon compound exposure.

[1] = system: samples from CLL patients; experiment: in vitro proliferation assays on samples from four groups of CLL patients; type: cell-based, human
Description: The samples used in this study were from four groups of CLL patients.

CLL cell lines = experiment: Thymidine incorporation assay (cell proliferation); type: cell-based
Protocol: After four days, cells were diluted 1:7 with fresh media, containing the same concentration of treatment compound. Three days later, ^3H-thymidine was added to label proliferating cells for 6-7 hours. Cells were then harvested onto filter plates for counting on a scintillation counter.

[2] = Cmp A vs. len, Case B1, 10 μM, 24 hours
[3] = Cmp A vs. len, Case B2, 10 μM, 24 hours
[4] = Cmp A vs. len, Case B3, 10 μM, 24 hours
[5] = FIG. 5 heatmap, 10 μM, 24 hours, vs DMSO

## Cc1nc2cccc(N)c2c(=O)n1C1CCC(=O)NC1=O (stereo not drawn) [Compound A, 3-(5-amino-2-methyl-4-oxo-4H-quinazolin-3-yl)-piperidine-2,6-dione]
PDE6D
  PDE6D reduction: more PDE6D reduction
Primary CLL samples; 10 μM, 24 hours
  protein abundance levels of SELL, SNX20 and KLF13 upon exposure: down-regulated
Primary CLL samples; Case B1
  level of WIZ (widely-interspaced zinc-finger) upon exposure: decreased
Primary CLL samples; Case B1, 10 μM, 24 hours
  RA upon Cmp A vs. len Treatment, IKZF1 (Q13422): Lower
  RA upon Cmp A vs. len treatment, BCL2L1 (Q07817): Higher
  RA upon Cmp A vs. len treatment, GZMB (P10144): Lower
  RA upon Cmp A vs. len treatment, IGHM (P01871-2): Lower
  RA upon Cmp A vs. len treatment, IKZF1 (Q13422-2): Lower
  RA upon Cmp A vs. len treatment, IRF8 (Q02556): Lower
  RA upon Cmp A vs. len treatment, KLF13 (Q9Y2Y9): Lower
  RA upon Cmp A vs. len treatment, LGALS9 (O00182): Lower
  RA upon Cmp A vs. len treatment, MARCKS (P29966): Higher
  RA upon Cmp A vs. len treatment, NDE1 (Q9NXR1): Higher
  RA upon Cmp A vs. len treatment, NFKBIE (O00221): Lower
  RA upon Cmp A vs. len treatment, PTK2B (Q14289-2): Higher
  RA upon Cmp A vs. len treatment, SAMSN1 (Q9NSI8): Higher
  RA upon Cmp A vs. len treatment, SELL (P14151-2): Lower
  RA upon Cmp A vs. len treatment, SLAMF1 (Q13291): Higher
  RA upon Cmp A vs. len treatment, SNX20 (Q7Z614): Lower
  RA upon Cmp A vs. len treatment, SOD2 (P04179): Higher
  RA upon Cmp A vs. len treatment, TCF7 (P36402-3): Lower
  RA upon Cmp A vs. len treatment, TRAF1 (Q13077): Higher
  RA upon Cmp A vs. len treatment, WIZ (M0QXA7): Lower
  RA upon Cmp A vs. len treatment, ZBTB10 (Q96DT7): Higher
Primary CLL samples; Case B2, 10 μM, 24 hours
  RA upon Cmp A vs. len Treatment, IKZF1 (Q13422): Lower
  RA upon Cmp A vs. len Treatment, IKZF3 (Q9UKT9): Lower
Primary CLL samples; Case B3
  abundance levels of GBP2 and GBP4 upon exposure: increased abundance levels
Primary CLL samples; Case B3, 10 μM, 24 hours
  RA upon Cmp A vs. len Treatment, CD40 (P25942): Higher
  RA upon Cmp A vs. len Treatment, CR2 (P20023-3): Higher
  RA upon Cmp A vs. len Treatment, CTSS (P25774): Higher
  RA upon Cmp A vs. len Treatment, GBP1 (P32455): Higher
  RA upon Cmp A vs. len Treatment, IKZF1 (Q13422): Lower
  RA upon Cmp A vs. len Treatment, IKZF3 (Q9UKT9): Lower
  RA upon Cmp A vs. len Treatment, ISG20 (Q96AZ6): Higher
  RA upon Cmp A vs. len Treatment, SASH1 (O94885): Higher
  RA upon Cmp A vs. len Treatment, SEMA7A (O75326): Higher
  RA upon Cmp A vs. len treatment, PTK2B (Q14289-2): Higher
  RA upon Cmp A vs. len treatment, SAMSN1 (Q9NSI8): Higher
  RA upon Cmp A vs. len treatment, SELL (P14151-2): Lower
  RA upon Cmp A vs. len treatment, SLAMF1 (Q13291): Higher
  RA upon Cmp A vs. len treatment, SOD2 (P04179): Higher
  RA upon Cmp A vs. len treatment, TRAF1 (Q13077): Higher
Primary CLL samples; Case B4 (not quantified in B2)
  IRF5 protein level: exclusively decreased
Primary CLL samples; Case B4, 10 μM, 24 hours
  RA upon Cmp A vs. len Treatment, PDE6D (O43924): Lower
Primary CLL samples; [2]
  logFC BCL2L1 (Q07817): 0.5326
  logFC GZMB (P10144): −1.175
  logFC IGHM (P01871-2): −0.6625
  logFC IKZF1 (Q13422): −1.709
  logFC IKZF1 (Q13422-2): −2.169
  logFC IRF8 (Q02556): −0.5643
  logFC KLF13 (Q9Y2Y9): −1.092
  logFC LGALS9 (O00182): −0.5646
  logFC MARCKS (P29966): 1.438
  logFC NDE1 (Q9NXR1): 0.7281
  logFC NFKBIE (O00221): −0.7408
  logFC PTK2B (Q14289-2): 0.9815
  logFC SAMSN1 (Q9NSI8): 0.6554
  logFC SELL (P14151-2): −1.823
  logFC SLAMF1 (Q13291): 0.9251
  logFC SNX20 (Q7Z614): −0.5611
  logFC SOD2 (P04179): 0.6081
  logFC TCF7 (P36402-3): −0.7071
  logFC TRAF1 (Q13077): 0.768
  logFC WIZ (M0QXA7): −0.4839
  logFC ZBTB10 (Q96DT7): 0.9382
Primary CLL samples; [3]
  logFC IKZF1 (Q13422): −2.186
  logFC IKZF3 (Q9UKT9): −2.626
Primary CLL samples; [4]
  logFC CD40 (P25942): 0.8064
  logFC CR2 (P20023-3): 0.7925
  logFC CTSS (P25774): 0.5932
  logFC GBP1 (P32455): 1.117
  logFC IKZF1 (Q13422): −2.686
  logFC IKZF3 (Q9UKT9): −1.425
  logFC ISG20 (Q96AZ6): 0.6234
  logFC PTK2B (Q14289-2): 0.8361
  logFC SAMSN1 (Q9NSI8): 0.89
  logFC SASH1 (O94885): 0.7177
  logFC SELL (P14151-2): −1.03
  logFC SEMA7A (O75326): 0.904
  logFC SLAMF1 (Q13291): 1.086
  logFC SOD2 (P04179): 0.6319
  logFC TRAF1 (Q13077): 0.7523
Primary CLL samples; Cmp A vs. len, Case B4, 10 μM, 24 hours
  logFC PDE6D (O43924): −1.494
Primary CLL samples; [5]
  IKZF1 (Ikaros) protein level: decreases across all experimental conditions with stronger effect upon Compound A exposure
  levels of Group 4 proteins (6 proteins including IKZF3 and a second IKZF1 isoform) upon exposure: decrease significantly
  protein abundance levels of Group 3 proteins (SMNX20, SELL, KLF13, WIZ, IKZF1, NFKBIE, TCF7 and IRF8) upon exposure: decrease
Primary CLL samples; resistant scenario (Case B4)
  STAT1 protein abundance, log 2 fold-change vs DMSO: −0.018
Primary CLL samples; sensitive patient sample (Case B3)
  STAT1 protein abundance, log 2 fold-change vs DMSO: 0.547
[1]; samples from the fourth group of patients (Case B4)
  effect on cell proliferation: neither Compound A nor lenalidomide had any effect on cell proliferation
[1]; samples from the second group of patients (Case B2)
  effect on cell proliferation: stronger proliferation reduction effect than lenalidomide
[1]; samples from the third group of patients (Case B3)
  effect on cell proliferation: reduced cell proliferation
CLL cell lines; 1 μM Compound A vs 10 μM lenalidomide, EHEB, I83-E95, Mec2, CII, and CI
  cell growth inhibition: more cell growth inhibition
CLL cell lines; Bucket #1 (EHEB and I83-E95)
  responsiveness of cell lines to treatment: responsive to both compounds
CLL cell lines; Bucket #2 (Mec2, CII, and CI)
  responsiveness of cell lines to treatment: more sensitive to Compound A than to lenalidomide
CLL cell lines; Bucket #3 (WA-C3-CD5, WA-OSEL, Mec1, and PGA1)
  responsiveness of cell lines to treatment: responsive to Compound A
CLL cell lines; Bucket #4 (HG3)
  responsiveness of cell lines to treatment: not responsive to either Compound A or lenalidomide
